# Assay results from DBAASP.
# Where “and” joins values, the source holds several entries; their conditions need not be identical. Equal values may be shown once.
# Columns and labels:
# Test in all cases: ≥ marks a high value that may be exact or a test limit, other limits are often not marked, values filed in µg/mL are converted to µM
# [1] = system: Corynebacterium stationis CIP 101282
# [2] = system: Escherichia coli SBS 363
# [3] = system: Vibrio coralliilyticus YB1 CIP 107925
# [4] = system: Staphylococcus aureus SG511
# [5] = system: Fusarium oxysporum
# [6] = system: Micrococcus luteus A270
# [7] = system: Microbacterium maritypicum CIP 105733T
# [8] = system: Vibrio aestuarianus CIP 109791
# [9] = system: Vibrio splendidus CIP 107715
# [10] = system: Bacillus megaterium IBMC
# [11] = system: Staphylococcus aureus KCTC 1621
# [12] = system: Candida albicans KCTC 7121
# [13] = system: Proteus vulgaris
# [14] = system: Escherichia coli KCTC 1682
# [15] = system: Bacillus subtilis KCTC 1918
# [16] = system: Aspergillus flavus KCTC 7375
# [17] = system: Trichosporon beigelii KCTC 7251
# [18] = system: Pseudomonas aeruginosa KCTC 1637
# [19] = system: Fusarium oxysporum KCTC 6084
# [20] = system: Bacillus megaterium KCTC 1096
# [21] = system: Pseudomonas aeruginosa IFO 12582
# [22] = system: Bacillus subtilis IFO 3143
# [23] = system: Staphylococcus aureus IFO 12732
# [24] = system: Escherichia coli IFO 12734
# [25] = system: Campylobacter jejuni ATCC 33291
# [26] = system: Streptococcus pyogenes ATCC 19615
# [27] = system: Clostridium perfringens ATCC 12915
# [28] = system: Saccharomyces cerevisiae
# [29] = system: Pseudomonas aeruginosa ATCC 27853
# [30] = system: Salmonella enterica subsp. enterica serovar Typhimurium ATCC 14028
# [31] = system: Bacillus cereus ATCC 9193
# [32] = system: Candida albicans
# [33] = system: Staphylococcus aureus ATCC 29213
smiles,measurement,setting,value
CC[C@H](C)[C@@H]1NC(=O)CNC(=O)[C@H](CCCCN)NC(=O)[C@H](CCCCN)NC(=O)[C@H](CC(=O)O)NC(=O)[C@@H]2CSSC[C@@H]3NC(=O)[C@H](CO)NC(=O)[C@H](Cc4ccc(O)cc4)NC(=O)[C@H](CO)NC(=O)[C@H](CSSC[C@H](NC(=O)[C@H](Cc4ccccc4)NC(=O)[C@H]([C@@H](C)O)NC(=O)[C@H](CCCCN)NC(=O)CNC(=O)[C@H](CCCN=C(N)N)NC(=O)[C@H](CC(C)C)NC(=O)[C@H](CC(=O)O)NC(=O)[C@H](C)NC(=O)[C@@H](NC(=O)[C@H](C)N)CSSC[C@@H](C(=O)N[C@@H](CCCN=C(N)N)C(N)=O)NC(=O)CNC3=O)C(=O)N[C@@H](CCCN=C(N)N)C(=O)N[C@@H](CC(C)C)C(=O)N[C@@H](Cc3ccccc3)C(=O)N[C@@H](CCCCN)C(=O)N[C@@H](CO)C(=O)N[C@@H](Cc3ccc(O)cc3)C(=O)N2)NC(=O)[C@H](CCCCN)NC(=O)[C@H](CC(=O)O)NC(=O)[C@H](CCCN=C(N)N)NC(=O)[C@H](CCSC)NC(=O)[C@H](CC(C)C)NC(=O)[C@H](CCCN=C(N)N)NC(=O)CNC(=O)[C@H](CCCN=C(N)N)NC1=O [ACADLRGKTFCRLFKSYCDKKGIRGRLMRDKCSYSCGCR],MIC,[1],10 µM
same,MIC,[2],10 µM
same,MIC,[3],20 µM
same,MIC,[4],5 µM
same,MIC,[5],1.25 µM
same,MIC,[6],1.25 µM
same,MIC,[7],20 µM
same,MIC,[8],20 µM
same,MIC,[9],20 µM
same,MIC,[10],20 µM
CC[C@H](C)[C@H](NC(=O)[C@H](CCCCN)NC(=O)[C@H](CCCCN)NC(=O)[C@H](Cc1ccccc1)NC(=O)[C@H](CC(C)C)NC(=O)[C@H](CCCCN)NC(=O)[C@H](Cc1c[nH]c2ccccc12)NC(=O)[C@@H](N)CCCCN)C(=O)N1CCC[C@H]1C(=O)N[C@@H](CCCCN)C(=O)N[C@@H](Cc1ccccc1)C(=O)N[C@@H](CC(C)C)C(=O)N[C@@H](Cc1cnc[nH]1)C(=O)N[C@@H](CC(C)C)C(N)=O [KWKLFKKIPKFLHL],MIC,[11],6.25 µM
same,MIC,[12],≥ 100 µM
same,MIC,[13],3.12 µM
same,MIC,[14],6.25 µM
same,MIC,[15],1.56 µM
same,MIC,[16],≥ 100 µM
same,MIC,[17],≥ 100 µM
same,MIC,[18],6.25 µM
same,MIC,[19],≥ 100 µM
same,MIC,[20],3.12 µM
CC(C)C[C@H](NC(=O)[C@H](Cc1ccc(O)cc1)NC(=O)[C@H](Cc1cnc[nH]1)NC(=O)[C@@H](NC(=O)[C@H](CC(C)C)NC(=O)[C@H](C)NC(=O)[C@H](C)NC(=O)[C@H](CCCCN)NC(=O)[C@H](C)NC(=O)[C@@H](NC(=O)[C@H](Cc1cnc[nH]1)NC(=O)[C@H](CCCCN)NC(=O)[C@H](C)NC(=O)[C@@H](NC(=O)[C@H](Cc1cnc[nH]1)NC(=O)[C@H](C)NC(=O)[C@H](C)NC(=O)[C@H](CCCCN)NC(=O)[C@H](CCCCN)NC(=O)[C@H](Cc1ccccc1)NC(=O)[C@H](Cc1ccccc1)NC(=O)[C@H](CO)NC(=O)[C@H](C)NC(=O)[C@H](Cc1c[nH]c2ccccc12)NC(=O)[C@H](C)N)C(C)C)C(C)C)[C@@H](C)O)C(=O)O [AWASFFKKAAHVAKHVAKAALTHYL],MIC,[21],1.45 µM
same,MIC,[22],0.723 µM
same,MIC,[23],0.723 µM
same,MIC,[24],0.723 µM
CC[C@H](C)[C@@H]1NC(=O)[C@H](CC(=O)O)NC(=O)[C@H](C(C)C)NC(=O)[C@H](CO)NC(=O)[C@@H]2CCCN2C(=O)[C@H](C)NC(=O)[C@H](CCCN=C(N)N)NC(=O)[C@@H]2CSSC[C@@H](C(=O)N[C@@H](CCCCN)C(=O)N[C@@H](Cc3c[nH]c4ccccc34)C(=O)N[C@@H](C)C(=O)N3CCC[C@H]3C(=O)N[C@@H](CO)C(=O)N[C@@H](CO)C(=O)O)NC(=O)[C@@H]3CSSC[C@H](NC(=O)[C@H](C)NC(=O)[C@H](CC(C)C)NC(=O)[C@@H](NC(=O)[C@@H](N)CC(=O)O)[C@@H](C)O)C(=O)N[C@@H](CCCN=C(N)N)C(=O)N[C@@H](CCC(N)=O)C(=O)N[C@@H](CO)C(=O)N[C@@H](Cc4cnc[nH]4)C(=O)NCC(=O)N[C@@H](CO)C(=O)N[C@@H](CSSC[C@H](NC(=O)[C@H]([C@@H](C)O)NC(=O)CNC1=O)C(=O)N[C@@H](CCCN=C(N)N)C(=O)NCC(=O)NCC(=O)N[C@@H](CCCCN)C(=O)N[C@@H](CC(C)C)C(=O)N[C@@H](CCCCN)C(=O)N3)C(=O)N[C@@H](CO)C(=O)N[C@@H](Cc1ccccc1)C(=O)N[C@@H](C(C)C)C(=O)N[C@@H](C)C(=O)N2 [DTLACRQSHGSCSFVACRAPSVDIGTCRGGKLKCCKWAPSS],MIC,[25],14.9 µM
same,MIC,[26],14.9 µM
same,MIC,[27],1.87 µM
same,MIC,[28],1.87 µM
same,MIC,[29],> 29.9 µM
same,MIC,[30],> 29.9 µM and 59.7 µM
same,MIC,[31],29.9 µM
same,MIC,[32],1.87 µM
same,MIC,[33],> 29.9 µM and 59.7 µM
